In patent US12507703B2, “Methods, devices and compositions for preserving human milk” (The Trustees of Princeton University, priority 2023, dated 2025):
Values joined by “and” are separate entries in the source; they are usually repeats but may differ in a detail not shown here. Equal entries are not always repeated.

These compounds were tested on lipase (assay: Lipase/lipolysis assay (EnzChek Lipase Substrate, quenched BODIPY-fatty acid conjugate) on stored human milk). Conditions: not given.
Note: test concentration or dose not given here.

| Compound | Lipase (RFU) |
| --- | --- |
| c1cncc([C@@H]2CCCCN2)c1 (racemic) [(±) Anabasine] | 1022.058 RFU |
| CC1=C(C=O)C(C)(C)CC=C1 [Safranal] | 1026.753 RFU and 1118.736 RFU |
| OC[C@@H](O)C(O)[C@H](O)CO [D-Arabitol] | 977.3738 RFU and 986.8626 RFU |
| CC(O)CN (stereo not drawn) [Compound 1-Aminopropan-2-ol, 1-Aminopropan-2-ol] | 1021.874 RFU and 806.2549 RFU |
| C/C(=C\CC[C@@H](C)[C@H]1CC[C@@]2(C)C3=CC[C@H]4C(C)(C)[C@@H](O)CC[C@]4(C)C3=CC[C@]12C)CO [Ganoderol B] | 970.7443 RFU |
| Cl.Cl.NCCc1c[nH]cn1 [Histamine (dihydrochloride)] | 1022.007 RFU |
| N#CC[C@H](N)C(=O)O [β-cyano-L-Alanine] | 869.3786 RFU |
| NCCCC[C@H](N)C(=O)O [L-Lysine] | 909.5913 RFU and 1084.77 RFU and 881.5409 RFU and 1310.906 RFU |
| COc1ccc([C@@H]2CC(=O)c3c(O)cc(O[C@@H]4O[C@H](CO[C@@H]5O[C@@H](C)[C@H](O)[C@@H](O)[C@H]5O)[C@@H](O)[C@H](O)[C@H]4O)cc3O2)cc1 [Didymin] | 1064.164 RFU |
| NCCS(=O)O [Hypotaurine] | 1147.047 RFU and 798.4494 RFU |
| Solanesol | 985.7418 RFU |
| C[C@H](CCC(=O)NCCS(=O)(=O)O)[C@H]1CC[C@H]2[C@@H]3[C@H](O)C[C@@H]4C[C@H](O)CC[C@]4(C)[C@H]3C[C@H](O)[C@]12C [Taurocholic Acid] | 1299.592 RFU and 949.1523 RFU and 900.9931 RFU |
| COC1=CC(=O)C=C(OC)C1=O [2,6-Dimethoxy-1,4-benzoquinone] | 934.6959 RFU |
| Nc1nc2nc[nH]c2c(=O)[nH]1 [Guanine] | 909.1174 RFU |
| CCO[C@@H]1O[C@H](C(=O)O)[C@@H](O)[C@H](O)[C@H]1O [Ethyl glucuronide] | 1053.076 RFU |
| CCCCCCCCCCCCC/C=C/[C@@H](O)[C@@H](N)CO[C@@H]1O[C@H](CO)[C@@H](O)[C@H](O)[C@H]1O [Glucosylsphingosine] | 955.6283 RFU |
| NC(Cc1ccccc1O)C(=O)O (racemic) [DL-O-Tyrosine] | 919.2122 RFU |
| CC1=C(C=O)C(C)(C)C[C@H](O[C@@H]2O[C@H](CO)[C@@H](O)[C@H](O)[C@H]2O)C1 [Picrocrocin] | 633.2514 RFU |
| COc1c(O)cc2oc(-c3ccc(O)cc3)cc(=O)c2c1O [Hispidulin] | 914.8964 RFU |
| NCC[C@H](N)C(=O)O [L-DABA] | 650.1144 RFU |
| C[C@H](CCC(=O)NCCS(=O)(=O)O)[C@H]1CC[C@H]2[C@@H]3[C@H](O)C[C@@H]4C[C@H](O)CC[C@]4(C)[C@H]3C[C@H](O)[C@]12C [Taurocholic acid (sodium)] | 1062.302 RFU and 748.8784 RFU |
| CCO.C[C@H]1c2cccc(O)c2C(O)=C2C(=O)[C@]3(O)C(O)=C(C(N)=O)C(=O)[C@@H](N(C)C)[C@@H]3[C@@H](O)[C@@H]21.C[C@H]1c2cccc(O)c2C(O)=C2C(=O)[C@]3(O)C(O)=C(C(N)=O)C(=O)[C@@H](N(C)C)[C@@H]3[C@@H](O)[C@@H]21.Cl.Cl.O [Doxycycline (hyclate)] | 757.6717 RFU |
| OC[C@H](O)C(O)[C@@H](O)CO [L-Arabitol] | 912.8862 RFU |
| C[C@H](CCC(=O)O)[C@H]1CC[C@H]2[C@@H]3[C@H](O)C[C@H]4C[C@H](O)CC[C@]4(C)[C@H]3C[C@H](O)[C@]12C [Allocholic acid] | 1000.774 RFU |

| Compound | Lipase (RFU) |
| --- | --- |
| Chondroitin Sulfate | 348.836 RFU |
| Cc1cc(O)c2c(c1)C(=O)c1cccc(O[C@@H]3O[C@H](CO)[C@@H](O)[C@H](O)[C@H]3O)c1C2=O [Chrysophanol 8-O-glucoside] | 988.4419 RFU |
| D-(−)-Quinic acid | 827.4863 RFU |
| C[C@H](CCC(=O)O)[C@H]1CC[C@H]2[C@@H]3CC[C@@H]4CC(O)CC[C@]4(C)[C@H]3CC(=O)[C@]12C (stereo partly drawn) [12-Ketodeoxycholic acid] | 778.2255 RFU |
| C/C=C/C=C/C=C\CC/C=C/C(=O)NCC(C)(C)O [Hydroxy-α-sanshool] | 984.0163 RFU |
| C[N+]1(C)CCC[C@H]1C(=O)[O-].Cl [Stachydrine hydrochloride] | 915.6673 RFU |
| COC(=O)c1cccnc1 [Methyl nicotinate] | 1069.07 RFU and 773.2703 RFU |
| CC1=CC(=O)CC(C)(C)[C@@]1(O)/C=C/C(C)=C\C(=O)O [Abscisic acid] | 1087.943 RFU |
| CC1=C(C)C(=O)C(CC[C@](C)(O)CCC[C@H](C)CCC[C@H](C)CCCC(C)C)=C(C)C1=O [D-α-Tocopherylquinone] | 598.2224 RFU |
| O=C1CCCCCCCCCCCCCCO1 [ω-Pentadecalactone] | 959.0542 RFU |
| O=c1ccc2c(O)c3ccoc3cc2o1 [Bergaptol] | 1060.003 RFU |
| CC(=O)Oc1c(C)c(C)c2c(c1C)CCC(C)(CCCC(C)CCCC(C)CCCC(C)C)O2 (racemic) [DL-α-Tocopherol acetate] | 697.673 RFU |
| C=C(CO)C(=O)O[C@H]1CC(=C)[C@@H]2C[C@H](O)C(=C)[C@@H]2[C@H]2OC(=O)C(=C)[C@@H]21 [Cynaropicrin] | 1182.791 RFU |
| CC(C)=CCc1c(O)cc(O)c2c(=O)c(-c3ccc(O)cc3)coc12 [Lupiwighteone] | 1206.447 RFU |
| CC1(C)[C@@H](O)CC[C@]2(C)[C@H]3C(=O)C=C4[C@@H]5C[C@@](C)(C(=O)O)CC[C@]5(C)CC[C@@]4(C)[C@]3(C)CC[C@@H]12 [18β-Glycyrrhetinic acid] | 736.3555 RFU |
| CC(=O)O [Acetic Acid] | 1200.605 RFU |
| Pyropheophorbide-a | 1205.079 RFU |
| O=C(O)CC(O)C(=O)O (racemic) [D,L-Malic Acid] | 781.9881 RFU |
| N[C@@H](CCCCNC(=O)CCCC[C@@H]1SC[C@@H]2NC(=O)N[C@@H]21)C(=O)O [Biocytin] | 807.0879 RFU |
| CC(=O)N[C@H]1[C@H](O[C@H]2[C@H](O)[C@@H](NC(C)=O)C(O)O[C@@H]2CO)O[C@H](CO)[C@@H](O[C@@H]2O[C@H](CO)[C@@H](O)[C@H](O)[C@H]2NC(C)=O)[C@@H]1O (stereo partly drawn) [N,N′,N″-Triacetylchitotriose] | 1143.03 RFU |
| C/C=C/C=C/C(=O)[O-].[K+] [Potassium sorbate] | 727.0693 RFU and 1055.671 RFU |
| Cc1ccc(C=O)cc1 [p-Tolualdehyde] | 1029.761 RFU |
| NCCOP(=O)(O)O [O-Phosphoryl-Ethanolamine] | 1247.866 RFU |
| Sorafenib (Tosylate) | 986.7553 RFU |

| Compound | Lipase (RFU) |
| --- | --- |
| COc1cc(/C=C/C(=O)CC(=O)CCc2ccc(O)c(OC)c2)ccc1O [Dihydrocurcumin] | 1140.2 RFU |
| C=C(C)[C@H]1C=C[C@@](C)(O)CC1 [cis-Isolimonenol] | 930.1567 RFU |
| C[C@H]1CCCC(=O)CCC/C=C/c2cc(O)cc(O)c2C(=O)O1 [Zearalenone] | 758.7174 RFU |
| Theaflavin-3′-gallate | 780.4384 RFU |
| C=C(O[C@@H]1C=C(C(=O)O)C=C[C@H]1O)C(=O)O [Chorismic Acid] | 935.6375 RFU |
| CCCCC[C@H](O)/C=C/[C@H]1C(=O)C[C@H](O)[C@@H]1C/C=C\CCCC(=O)O [Prostaglandin D2] | 071064.5 RFU |
| O=C(O)c1ccc2ccccc2n1 [Quinoline-2-carboxylic acid] | 994.8984 RFU |
| CC[C@H]1[C@@H]2C[C@H]3[C@@H]4N(C)c5ccccc5[C@]45C[C@@H]([C@H]2[C@H]5O)N3[C@@H]1O [Ajmaline] | 916.1038 RFU |
| C[n+]1cn([C@@H]2O[C@H](CO)[C@@H](O)[C@H]2O)c2nc(N)[nH]c(=O)c21 [Compound 7-Methylguanosine, 7-Methylguanosine] | 974.6149 RFU |
| OC[C@H]1O[C@@](CO)(O[C@H]2O[C@H](CO)[C@@H](O)[C@H](O)[C@H]2O)[C@@H](O[C@H]2O[C@H](CO)[C@@H](O)[C@H](O)[C@H]2O)[C@@H]1O [D-(+)-Melezitose] | 886.4563 RFU |
| OC1OC[C@@H](O[C@@H]2OC[C@@H](O)[C@H](O)[C@H]2O)[C@H](O)[C@H]1O (stereo partly drawn) [Xylobiose] | 862.1511 RFU |
| COc1cc2oc3cc(O)c(OC)c(CC=C(C)C)c3c(=O)c2c(O)c1CC=C(C)C [beta-Mangostin] | 828.6091 RFU |
| O=C1CC(C(=O)O)c2c1oc(=O)c1cc(O)c(O)c(O)c21 (stereo not drawn) [Brevifolincarboxylic acid] | 760.1752 RFU |
| O=S(=O)([O-])c1ccc2c(N=Nc3ccc(S(=O)(=O)[O-])c4ccccc34)c(O)c(S(=O)(=O)[O-])cc2c1.[Na+].[Na+].[Na+] [Amaranth] | 987.0531 RFU |
| NC(=O)NCCCC(N)C(=O)O (stereo not drawn) [2-Amino-5-ureidopentanoic acid] | 983.9261 RFU |
| O=c1cc(-c2ccc(O)c(O)c2)oc2cc(O[C@@H]3O[C@H](CO)[C@@H](O)[C@H](O)[C@H]3O)cc(O)c12 [Cynaroside] | 1111.46 RFU |
| C=CCc1ccc(O)c(-c2cc(CC=C)ccc2O)c1 [Magnolol] | 941.9616 RFU |
| Cc1nc2ccccc2o1 [Compound 2-Methylbenzoxazole, 2-Methylbenzoxazole] | 887.776 RFU |
| O=C1C[C@@H](c2ccc(O)c(O)c2)Oc2cc(O[C@@H]3O[C@H](CO)[C@@H](O)[C@H](O)[C@H]3O)cc(O)c21 [Eriodictyol-7-O-glucoside] | 982.3042 RFU |
| C[C@H](O)[C@H](O)C1=Nc2c(nc(N)[nH]c2=O)NC1 [7,8-Dihydro-L-biopterin] | 1090.909 RFU |
| Nc1c(O)cccc1C(=O)CC(N)C(=O)O (stereo not drawn) [Compound 3-Hydroxykynurenine] | 1303.264 RFU |
| CC1(C)S[C@@H]2[C@H](NC(=O)[C@H](N)c3ccccc3)C(=O)N2[C@H]1C(=O)[O-].[Na+] [Ampicillin (sodium)] | 844.0223 RFU |
| C[C@]12CC[C@@H]3c4ccc(O)c(O)c4CC[C@H]3[C@@H]1CCC2=O [Compound 4-Hydroxyestrone] | 1068.255 RFU |

Same assay, conditions: (hydrochloride)

| Compound | Lipase (RFU) |
| --- | --- |
| Cl.N[C@@H](CS)C(=O)O [L-Cysteine (hydrochloride)] | 936.4597 RFU and 1023.471 RFU |
